Experimental data: patent US20150099012A1, “METHODS FOR ACTIVATING RETROVIRUS IN LATENT INFECTED CELLS, AND COMPOUNDS FOR USE THEREIN” (Erasmus University Medical Center Rotterdam, priority 2012, published 2015)

How the values were obtained:
latent HIV LTR = assay: Activation of latent HIV LTR in J-Lat/S-Lat latently infected cell lines (GFP reporter, FACS); type: cell-based, HIV-1; settings: for de-repression / activation of latent HIV LTR: single agents, J-Lat/S-Lat or 1G5 cells, FIG. 5
Protocol: A) S-Lat 46, J-Lat P32, J-Lat A2, J-Lat 11.1, S-Lat 24, S-Lat 9 and […], and GFP expression was monitored by FACS analysis to determine activation of the latent LTR. B) J-Lat P32 and (C) S-Lat 30 Jurkats and SupT1 cell lines harbouring latently infected HIV were either untreated or treated with 2, 5 or 10 mM LiCl as indicated. Expression of HIV-LTR driven P24 and GFP, and endogenous Wnt target genes AXIN2, MMP9, TCF1, as well as control GAPDH and NFkB target genes TLR2 and ICAM1 was monitored by qRT-PCR 72 hours after treatment. Expression data are presented as fold induction normalized to Cyclophillin A control.
(§1) Expression data are presented as fold induction normalized to Cyclophillin A control.

[1] = system: HIV LTR nucleosomes (DHS1, nuc-1); assay: PCR-based MNase mapping of latent HIV LTR nucleosome structure; type: cell-based
Source text: The high resolution dynamic nucleosomal structure of latently integrated HIV LTR is mapped in presence or absence of Wnt stimulation.
It is an aspect of this invention that this synergistic effect on LTR nucleosome structure extends to other LTR de-repressors.

latently infected PBMCs = assay: Primary PBMC latency model, HIV expression after treatment; type: cell-based; settings: PBMCs infected with LTR-Tat-IRES-GFP virus, sorted five days after infection
Source text: PBMCs were infected with VSV-G pseudotyped LTR-Tat-IRES-GFP virus particles and examined establishment of a latent phenotype, as in the cell line latency models (J-Lat/S-Lat). Briefly, PBMCs were Ficoll-purified from buffycoats of healthy donors, activated with phytohemagglutinin (PHA-L) and Interleukin-2 (IL-2), followed by virus infection. Five days after infection, GFP negative cells were sorted by FACS, placed in culture. […] Thus, even in the context of a fully activated T cell, integration of HIV at select sites will lead to the suppression of HIV transcription.

[2] = system: NFkB target genes TLR2 and ICAM1; assay: qRT-PCR of NFkB target genes in latent HIV-infected Jurkat/SupT1 cell lines; type: cell-based
Protocol: as §1
(§2) Latent HIV-infected S-Lat 30 (A) and J-LatP32 (B) were treated with Wnt3A or control conditioned media. Relative mRNA expression levels of endogenous Wnt target genes AXIN2, ZCCHC12, TCF1, MMP9, the HIV P24 Gag and the LTR-reporter GFP, control (GAPDH) and NFkB target genes were quantitated by qRT-PCR. Expression data are presented as fold induction normalized to Cyclophillin A control.
(§3) A) S-Lat 46, J-Lat P32, J-Lat A2, J-Lat 11.1, S-Lat 24, S-Lat 9 and S-Lat 30 latently infected Jurkat and SupT1 cell lines were treated with Lithium Chloride (10 mM) for 2 hours, and GFP expression was monitored by FACS analysis to determine activation of the latent LTR. B) J-Lat P32 and (C) S-Lat 30 Jurkats and SupT1 cell lines harbouring latently infected HIV were either untreated or treated with 2, 5 or 10 mM LiCl as indicated. Expression of HIV-LTR driven P24 and GFP, and endogenous Wnt target genes AXIN2, MMP9, TCF1, as well as control GAPDH and NFkB target genes TLR2 and ICAM1 was monitored by qRT-PCR 72 hours after treatment. Expression data are presented as fold induction normalized to Cyclophillin A control.
as §2, with “In addition, latent” for “Latent”

[3] = system: latent HIV (P24 Gag, LTR-reporter GFP); assay: qRT-PCR of HIV P24 Gag and LTR-reporter GFP mRNA in latent HIV-infected cell lines; type: cell-based
Source text: (§4) A) Exogenous expression of S33Y β-catenin in S-Lat30 latent HIV infected cell line results in activation of TCF/LEF-driven TOPFLASH luciferase activity. […] S33Y β-catenin expression also results in a concomitant activation of latent HIV in S-Lat30 HIV infected cell line as quantitated by increased mRNA expression of HIV P24 Gag and the LTR-reporter GFP. Expression data are presented as fold induction normalized to Cyclophillin A control.
as §2
as §2, with “In addition, latent” for “Latent”, “control. […]” for “control.”

[4] = system: Wnt target genes AXIN2, TCF7(TCF1), MMP9, ZCCHC12, MMP2; assay: qRT-PCR of endogenous Wnt target genes in latent HIV-infected Jurkat/SupT1 cell lines; type: cell-based
Protocol: as §1, §2
as §3, with “B) J-Lat P32 and (C) S-Lat 30 Jurkats and SupT1 cell lines harbouring latently infected HIV were either untreated or treated with 2, 5 or 10 mM LiCl as indicated.” left out, “Expression data are presented as fold induction normalized to Cyclophillin A control.” left out
as §2, with “In addition, latent” for “Latent”, “Expression data are presented as fold induction normalized to Cyclophillin A control.” left out

TCF/LEF-driven TOPFLASH = TCF/LEF-driven TOPFLASH luciferase reporter in S-Lat30; type: cell-based; settings: exogenous expression (nucleofection) in S-Lat30; FIG. 6A
Source text: as §4
For example, activation of the Wnt signaling pathway may be measured/quantitated by an increase In TCF-driven transcription in the cell after introduction of TOPFLASH (plasmid with tandem TCF/LEF consensus sites driving expression of the luciferase gene) into the cell via transfection/nucleofection. Increase in TOPFLASH (TCF-driven) and not FOPFLASH (TCF-mutant reporter) indicates activation of the Wnt signaling pathway.
S33Y β-catenin constitutively active mutant: Transfection (by nucleofection) of latent HIV infected cell lines with an expression vector for a constitutively active form of β-catenin, the molecular effector of the Wnt signaling pathway results in activation of latent HIV.

[5] = Wnt3A conditioned media, S-Lat 30 and J-LatP32, FIG. 7
[6] = exogenous expression in S-Lat30, FIG. 6B

Cc1c[nH]c(-c2cnc(NCCNc3ccc(C#N)cn3)nc2-c2ccc(Cl)cc2Cl)n1 [CHIR-99021, 6-(2-(4-(2,4-Dichlorophenyl)-5-(4-methyl-1H-imidazol-2-yl)-pyrimidin-2-ylamino)ethyl-amino)-nicotinonitrile]
activation of the latent LTR (GFP expression by FACS) (latent HIV LTR; 1 μM, 24 hours, J-Lat P44, S-Lat 24, J-Lat P21, J-Lat 11.1, S-Lat 9, S-Lat 30, FIG. 8): activation of the HIV LTR

CCCCCCCCCCCCCC(=O)O[C@@H]1[C@@H](C)[C@@]2(O)[C@@H](C=C(CO)C[C@]3(O)C(=O)C(C)=C[C@@H]23)[C@@H]2C(C)(C)[C@]12OC(C)=O [PMA]
loosely positioned nucleosomes over DHS1 (MNase mapping) ([1]; PMA stimulation): disappear | HIV expression in GFP negative sorted infected PBMCs (latently infected PBMCs): activated HIV expression

CC(=O)O[C@@]12C[C@@H](C)[C@@]3(O)[C@@H](C=C(CO)C[C@]4(O)C(=O)C(C)=C[C@@H]34)[C@@H]1C2(C)C [Prostratin]
mRNA expression of NFkB target genes TLR2, ICAM1 (RT-PCR) ([2]; Lithium 1 mM-10 mM, Prostratin as positive control, FIG. 9): activation of the NFkB target genes TLR2 and ICAM

CCCC(CCC)C(=O)O [VPA, valproic acid]
remodelling of nuc-1 (MNase mapping) ([1]; co-treatment of VPA with Wnt stimulation): dramatic remodelling of the repressive nuc-1 | de-repression / activation of latent HIV LTR (latent HIV LTR): marginal activation

TNFa
HIV expression in GFP negative sorted infected PBMCs (latently infected PBMCs): activated HIV expression

Wnt3A
activation of latent HIV (P24 Gag and LTR-reporter GFP mRNA, qRT-PCR) [3, 5]: activates latent HIV | activation of NFkB target genes (qRT-PCR) [2, 5]: not NFkB target genes | activation of endogenous Wnt target genes (qRT-PCR) [4, 5]: activates latent HIV and endogenous Wnt target genes | de-repression / activation of latent HIV LTR (latent HIV LTR): de-repression of latent HIV LTR

B1: R-spondin: LGR ligand, 27 kDa protein, used as R-spondin1-conditioned medium from HEK293T (protein, UniProt Q2MKA7 21-263, looked up)
R-spondin-1: SRGIKGKRQRRISAEGSQACAKGCELCSEVNGCLKCSPKLFILLERNDIRQVGVCLPSCPPGYFDARNPDMNKCIKCKIEHCEACFSHNFCTKCKEGLYLHKGRCYPACPEGSSAANGTMECSSPAQCEMSEWSPWGPCSKKQQLCGFRRGSEERTRRVLHAPVGDHAACSDTKETRRCTVRRVPCPEGQKRRKGGQGRRENANRNLARKESKEAGAGSRRRKGQQQQQQQGTVGPLTSAGPA
modifications: conditioned medium
notes: LGR ligand, 27 kDa protein, used as R-spondin1-conditioned medium from HEK293T
de-repression / activation of latent HIV LTR (latent HIV LTR): de-repression of latent HIV LTR

B2: S33Y β-catenin: constitutively active β-catenin mutant, expressed from a nucleofected expression vector (protein, UniProt P35222 2-781, looked up, variant S33Y)
Catenin beta-1: ATQADLMELDMAMEPDRKAAVSHWQQQSYLDYGIHSGATTTAPSLSGKGNPEEEDVDTSQVLYEWEQGFSQSFTQEQVADIDGQYAMTRAQRVRAAMFPETLDEGMQIPSTQFDAAHPTNVQRLAEPSQMLKHAVVNLINYQDDAELATRAIPELTKLLNDEDQVVVNKAAVMVHQLSKKEASRHAIMRSPQMVSAIVRTMQNTNDVETARCTAGTLHNLSHHREGLLAIFKSGGIPALVKMLGSPVDSVLFYAITTLHNLLLHQEGAKMAVRLAGGLQKMVALLNKTNVKFLAITTDCLQILAYGNQESKLIILASGGPQALVNIMRTYTYEKLLWTTSRVLKVLSVCSSNKPAIVEAGGMQALGLHLTDPSQRLVQNCLWTLRNLSDAATKQEGMEGLLGTLVQLLGSDDINVVTCAAGILSNLTCNNYKNKMMVCQVGGIEALVRTVLRAGDREDITEPAICALRHLTSRHQEAEMAQNAVRLHYGLPVVVKLLHPPSHWPLIKATVGLIRNLALCPANHAPLREQGAIPRLVQLLVRAHQDTQRRTSMGGTQQQFVEGVRMEEIVEGCTGALHILARDVHNRIVIRGLNTIPLFVQLLYSPIENIQRVAAGVLCELAQDKEAAEAIEAEGATAPLTELLHSRNEGVATYAAAVLFRMSEDKPQDYKKRLSVELTSSLFRTEPMAWNETADLGLDIGAQGEPLGYRQDDPSYRSFHSGGYGQDALGMDPMMEHEMGGHHPGADYPVDGLPDLGHAQDLMDGLPPGDSNQLAWFDTDL
mRNA expression of HIV P24 Gag and LTR-reporter GFP [3, 6]: increased mRNA expression of HIV P24 Gag as well as the LTR-reporter GFP | mRNA expression of control gene GAPDH and NFkb target genes TLR2 and ICAM1 [2, 6]: not control gene GAPDH, or the NFkb target genes TLR2 and ICAM1 | TCF-driven TOPFLASH luciferase activity (TCF/LEF-driven TOPFLASH): activation of TCF-driven TOPFLASH luciferase activity | mRNA expression of endogenous Wnt target genes AXIN2, MMP2, TCF1, ZCCHC12, MMP9 [4, 6]: increased mRNA expression of the endogenous Wnt target genes
